From patent publication US8236824B2, “N-(pyrazole-3-yl)-benzamide derivatives as glucokinase activators” (Merck Patent Gesellschaft mit Beschränkter Haftung, priority 2007, dated 2012)

Target: T1, glucokinase (GK), human enzyme (Homo sapiens, UniProt P35557)
T1 sequence (P35557 1-465): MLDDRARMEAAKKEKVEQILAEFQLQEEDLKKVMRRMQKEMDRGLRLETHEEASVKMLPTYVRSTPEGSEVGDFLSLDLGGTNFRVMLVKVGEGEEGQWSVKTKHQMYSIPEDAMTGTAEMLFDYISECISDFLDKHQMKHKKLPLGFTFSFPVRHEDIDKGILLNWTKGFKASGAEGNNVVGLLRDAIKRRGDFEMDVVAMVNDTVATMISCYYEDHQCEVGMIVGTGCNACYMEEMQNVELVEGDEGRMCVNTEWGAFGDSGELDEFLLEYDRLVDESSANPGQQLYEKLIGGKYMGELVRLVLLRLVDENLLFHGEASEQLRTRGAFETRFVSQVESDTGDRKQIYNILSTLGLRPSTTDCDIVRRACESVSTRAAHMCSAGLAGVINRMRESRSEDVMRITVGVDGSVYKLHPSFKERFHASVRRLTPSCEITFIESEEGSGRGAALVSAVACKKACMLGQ
Experiment: Glucokinase Activation Screening Assay (coupled enzyme assay with PK/LDH, NADH decline at 340 nm)
Assay type: biochemical
Details: 2 mM glucose
Procedure: Glucokinase Activation Screening Assay
GK activity (human or rat enzyme) is measured by an coupled enzyme assay using pyruvate kinase (PK) and lactate dehydrogenase (LDH) as coupling enzymes. GK activity is calculated from the decline in NADH monitored photometrically with a microliter plate (MTP) reader at 340 nm. For screening purposes, the GK assay is routinely run in a 384-MTP format, in a total volume of 33 μl/well. 10 μl of the ATP-regeneration solution (in HEPES-buffer*, pH 7.0, 6.73 U/ml pyruvate kinase, 6.8 U/ml lactate dehydrogenase) and 10 μl of the glucokinase-/glucose solution (15 μg/ml, 6.6 mM glucose in HEPES-buffer*, pH 7.0; the concentration of the glucose stock-solution was 660 mM in Millipore H2O) were mixed together with 3 μl of a 10% DMSO solution (in HEPES-buffer*, pH 7.0) containing […] the amounts of the compounds to achieve final compound concentrations in the range between 1 nM to 30 μM (sometimes 300 μM) in the assay solution (s. below). The solutions were mixed for 5 sec, and after a centrifugation at 243×g for 5 min, the solutions were preincubated for 25 min at room temperature.
The reaction was started by the addition of 10 μl of the NADH-/ATP-solution (4.29 mM NADH, 4.95 mM ATP, in HEPES-buffer*). The MTP was shaken for 5 sec., and then, the absorbance at 340 nm was monitored continuously in a MTP-reader (TECAN Spectro fluor plus) for the next 27 min (with a MTP-cycling time of 199 sec.). The final concentrations of the various components were as follows: 49.5 mM Hepes, pH 7.0, 1.49 mM PEP, 1.3 mM NADH, 49.5 mM KCl, 4.96 mM MgCl2, 1.5 mM Mg-ATP, 1.98 mM DTT, 2.04 U/ml pyruvate kinase, 2.06 U/milactate-dehydrogenase, 0.91% DMSO, 0.15 μg/well glucokinase, and test compounds in the range between 1 nM and 300 μM.
The change in the optical density (ΔOD340 nm) in the presence of the compound was expressed relative to the ΔOD340 nm, ctrl of the control incubation (in the presence of 2 mM glucose and 0.91% DMSO), taking into account the optical density of the blank sample (incubation in the absence of 2 mM glucose). For the determination of the half maximal effective concentration (EC50), the %-Ctrl-values were plotted in a semi-logarithmic graph against the conc. of the compound of interest. The data points were fitted to a sigmoid curve function (f(x)=((%-Ctrlmax-%-Ctrlmin)/(1−(EC50/x**^n(Hill)))%-Ctrlmin)) by a non-linear regression analysis. • Hepes-buffer (50 mM Hepes, pH 7.0, 5 mM MgCl2, 50 mM KCl, 1.5 mM PEP, 0.1% BSA). DTT was added to the Hepes-buffer from a 200× stock solution (in Millipore H2O) freshly each day. The final concentration of DTT in the Hepes-buffer is 2 mM. Culture of Pancreatic INS-1 Cells

| EC50 [nM] | SMILES |
| --- | --- |
| 10 to 1000 | CC(C)Oc1cc(OCc2ccccc2)cc(C(=O)Nc2ccn(Cc3ccccc3)n2)c1 [A3, 3-Benzyloxy-N-(1-benzyl-1H-pyrazol-3-yl)-5-isopropoxy-benzamide] |
| 10 to 1000 | COC[C@H](C)Oc1cc(O[C@@H](C)Cc2ccccc2)cc(C(=O)Nc2ccn(Cc3ccccc3)n2)c1 [A4] |
| 10 to 1000 | COC[C@H](C)Oc1cc(O[C@@H](C)Cc2ccccc2)cc(C(=O)Nc2ccn(Cc3cccnc3)n2)c1 [A7, 3-((S)-2-methoxy-1-methyl-ethoxy)-5-((S)-1-methyl-2-phenyl-ethoxy)-N-(1-pyridine-3-ylmethyl-1H-pyrazole-3-yl)-benzamide] |
| 10 to 1000 | CC(C)Oc1cc(OCCc2ccsc2)cc(C(=O)Nc2ccn(Cc3ccccn3)n2)c1 [A6, 3-isopropoxy-N-(1-pyridine-2-ylmethyl-1H-pyrazole-3-yl)-5-(2-thiophene-3-yl-ethoxy)-benzamide] |
| 1000 to 10000 | CC(C)Oc1cc(OCc2ccccc2)cc(C(=O)Nc2ccn(Cc3ccccn3)n2)c1 [A1, 3-Benzyloxy-5-isopropoxy-N-(1-pyridine-2-ylmethyl-1H-pyrazol-3-yl)-benzamide] |

Continued, compound first:

| SMILES | EC50 [nM] |
| --- | --- |
| COC[C@H](C)Oc1cc(O[C@@H](C)Cc2ccccc2)cc(C(=O)Nc2ccn(Cc3ccccn3)n2)c1 [A5, 3-((S)-2-Methoxy-1-methyl-ethoxy)-5-((S)-1-methyl-2-phenyl-ethoxy)-N-(1-pyridine-2-ylmethyl-1H-pyrazole-3-yl)-benzamide] | 10 to 1000 |
| CC(C)Oc1cc(OCCc2ccsc2)cc(C(=O)Nc2ccn(Cc3ccccc3)n2)c1 [A9, N-(1-Benzyl-1H-pyrazol-3-yl)-3-isopropoxy-5-(2-thiophen-3-yl-ethoxy)-benzamide] | 10 to 1000 |
| COC[C@H](C)Oc1cc(Oc2ccc(S(C)(=O)=O)cc2)cc(C(=O)Nc2ccn(Cc3cccnc3)n2)c1 [A10] | 10 to 1000 |
| COC[C@H](C)Oc1cc(O[C@@H](C)Cc2ccccc2)cc(C(=O)Nc2ccn(Cc3ccncc3)n2)c1 [A8, 3-((S)-2-methoxy-1-methyl-ethoxy)-5-((S)-1-methyl-2-phenyl-ethoxy)-N-(1-pyridine-4-ylmethyl-1H-pyrazole-3-yl)-benzamide] | 10 to 1000 |
| Cc1cc(NC(=O)c2cc(OCc3ccccc3)cc(OC(C)C)c2)nn1Cc1ccccn1 [A2, 3-Benzyloxy-5-isopropoxy-N-(5-methyl-1-pyridine-2-ylmethyl-1H-pyrazole-3-yl)-benzamide] | 1000 to 10000 |
